Results: US8497298B2, “Use of benzo-fused heterocycle sulfamide derivatives for lowering lipids and lowering blood glucose levels” (Janssen Pharmaceutica NV, priority 2005, dated 2013)

Experiments:
db/db mice = assay: Diabetic db/db Mouse In Vivo Assay (Example 13); conditions: female db/db mice, A300 mg/kg oral gavage once daily
Excerpt: Db/db mice are known in the art to be susceptible to Type II diabetes (Sharma K, McCue P, Dunn S R. Am J Physiol Renal Physiol. 2003 June;284(6):F1138-44). The Db/db mice are also known in the art to be a useful model for dylipidemia.
Female db/db mice (C57BL/6J-Lep^db/db, Jackson Laboratories, Bar Harbor, Me., USA) were received at 8 weeks of age and single-housed and fed with regular chow diet. Blood was collected by tail puncture and glucose was monitored with a glucometer (OneTouch Basic, Lifescan, Newtown, Pa.).
Mice at 10 weeks of age were randomized into treatment groups based on glucose values (first criterion, average of 250 mg/dl) and body weight (second criterion, average of 37 gram). The mice were orally gavaged once daily (0.2 ml at 1500-1700 hour) with vehicle control (0.5% methylcellulose, pH7.4) and vehicle containing test compound (A300 mg/kg). On day 11, the mice were fasted for 4 hr during light cycle (food was removed 0600-1000 hour) and blood glucose levels were measured through tail puncture with a glucometer at 1000 hour. The mice were then anaesthetized with sodium pentobarbital (1 ml/kg, i.p, Sleepaway, Fort Dodge, Iowa) and blood was drawn via cardiac puncture and collected into heparinized tubes.
White adipose tissue (WAT) (retroperitoneal fat) and skeletal muscle (gastrocnemius and soleus muscle) were dissected and weighed. Plasma samples were obtained by centrifuge at 2,000 g for 15 minutes at 4° C. and subjected to measurement of insulin, HDL cholesterol and triglyceride.
Data shown below are expressed as the mean and standard error calculated using 9-10 mice per treatment group. The 2 tailed Student's t-Tests were used for statistic analysis. All animal studies complied with the guideline of the Institutional Animal Care and Use Committee.

[1] = test system: Zucker diabetic fatty (ZDF Gmi-fa/fa) rats; assay: Zucker Diabetic Fatty Rats Assay with 29 day wash-out (Example 16); assay type: in vivo, rat; conditions: for Blood Glucose Level Day 0: Day 0 (baseline), ad lib fed; for Blood Glucose Level Day 36: then 29 days wash-out
Method: Compound #8 was suspended in 0.5% Methocel using a hand held homogenizer to reduce the particle size and a magnetic stir bar and stir plate to keep the particles homogeneously suspended throughout the dosing period. 0.5% Hydroxypropyl Methylcellulose (Methocel) used as vehicle/control. Compound #8 was tested in both diabetic models of mouse and rat.
In this study, female Zucker diabetic fatty (ZDF Gmi-fa/fa) rats were selected for glucose lowering effect. ZDF rats from (Charles River Laboratories, Wilmington, Mass.) at 7 weeks of age were individually housed and fed with C13004 diet (obtained from Research Diets, New Brunswick, N.J.). All of the rats were quarantined for a period of one week before transfer to the animal procedure room. A drop of blood (about 2 microliters) was collected by tail puncture and glucose concentration was detected with a glucometer (OneTouch UltraSmart, Lifescan, Milpitas, Calif.).
ZDF rats at 8 weeks of age were randomized into four treatment groups based on glucose values (first criterion, average of 150 mg/dL) and body weight (second criterion, average of 240 g). 13 rats were allocated into 4 treatment groups of 3 rats each for Compound #8 treated groups and 4 rats for the non-treated group. The three groups were then treated with 10 mg/kg Compound #8, 30 mg/kg Compound #8, and 100 mg/kg Compound #8 in 0.5 methylcellulose, respectively.
The rats were orally gavaged once daily (at 1500-1700 hour) with vehicle control (0.5% Methocel, pH7.4) or vehicle containing Compound #8 for 7 days. The dosing volume was 5 mL/kg body weight (1.2 mL for 250 gram rat). The rats were fed ad lib throughout the study. The rats were then allowed 29 days of wash-out period, where no dosing was administered.
Basal glucose levels after treatments were measured on Day 0 (baseline) and Day 36 (after 7 days dosing and 29 days wash-out) in ad lib fed rats with a glucometer (OneTouch UltraSmart, Lifescan, Milpitas, Calif.) after collecting two microliters of blood through tail puncture.
Data from this study was analyzed using the standard two-tailed Student's t-test and are expressed below as means and standard errors, with results as listed in Table 15 below.

NS(=O)(=O)NC[C@H]1COc2cc(Cl)ccc2O1 [Compound #8, (2S)-(−)-N-(6-Chloro-2,3-dihydro-benzo[1,4]dioxin-2-ylmethyl)-sulfamide]
Retroperitoneal Fat Weight (db/db mice; day 11): 1.31 ± 0.07 g | Skeletal Muscle Weight (db/db mice; day 11): 0.154 ± 0.00 g | Blood Glucose (db/db mice; day 11, fasted 4 hr): 210 ± 27 mg/dL | HDL Cholesterol (db/db mice; day 11, plasma): 55.9 ± 3.7 mg/dL | Triglycerides (db/db mice; day 11, plasma): 98 ± 41 mg/dL | fat to lean mass ratio (db/db mice; p<0.01 vs vehicle 27.9±1.4): 23.4±0.9 | Insulin levels versus vehicle treated animals (db/db mice; plasma): not statistically different | Blood Glucose Level Day 0 ([1]; 10 mg/kg group): 222 ± 20 mg/dL | Blood Glucose Level Day 36 ([1]; 10 mg/kg oral once daily 7 days): 295 ± 81 mg/dL | Blood Glucose Level Day 0 ([1]; 30 mg/kg group): 229 ± 23 mg/dL | Blood Glucose Level Day 36 ([1]; 30 mg/kg oral once daily 7 days): 247 ± 86 mg/dL | Blood Glucose Level Day 0 ([1]; 100 mg/kg group): 228 ± 18 mg/dL | Blood Glucose Level Day 36 ([1]; 100 mg/kg oral once daily 7 days): 219 ± 39 mg/dL
